Measured values taken from patent US9381518B2, “Nano-suspension process” (MERCK SHARP & DOHME CORP., priority 2011, dated 2016).
Read-outs that look alike come from different tables or passages of the source.

How the values were obtained:
[1] = 90 minutes
Description: Example nano-suspensions were evaluated for particle size and particle size distribution using dynamic light scattering (DLS, Wyatt, DyanoPro Plate Reader). Results reported for particle size analysis (D50 and D90) have their ordinary meaning as understood in the art of particle-size analysis. Unless otherwise indicated, values for D50 and D90 are reported in nanometers (nm). The APC in example nano-suspensions was evaluated using high performance liquid chromatography (HPLC, Hewlett Packard, Agilent 1100). Residual metals analysis was performed using inductively coupled plasma mass spectroscopy (ICP-MS, Perkin Elmer).
The temperature of each nano-suspension was determined using a thermometer immediately after the milling time was completed. Particle size and metals content were analyzed as described herein. The nano-suspension product produced in each operation was recovered through centrifuge filtration over a 10 micron polypropylene mesh (Nanomill) or through a syringe equipped with a 20-gauge needle (acoustic mixer). In the case of the nano-suspension prepared with acoustic mixing, the YTZ milling media is sufficiently dense that it settles from the nano-suspension and permits separation by decantation without the need for separation through a mesh.

[2] = Particle size analysis (D50, D90) of nano-suspensions by dynamic light scattering; assay type: physicochemical; settings: 90 minutes, PVP-K29-32/SDS in water

Residual Metals ([1]; Elan Nanomill high-shear milling): >1000 ppm
Residual Metals ([1]; Resodyn LabRAM acoustic mixer): <1 ppm
Drug nanoparticle diameter (D50) ([2]; Elan Nanomill high-shear milling, polystyrene milling beads): 354 nm
Drug nanoparticle diameter (D50) ([2]; Resodyn LabRAM acoustic mixer, YTZ milling beads): 286 nm
Structure (SMILES): COc1ccc2cc([C@H](C)C(=O)O)ccc2c1 [Naproxen sodium]
